Calls of active or inactive are those of the source. The rule behind the calls is not given here.

This experiment deals with HEK-293T NF-kB luciferase reporter counterscreen, luminescence. The experiment can be described thus: inhibitors of HEK-293T NF-kB luciferase – HEK-293T cells, luminescence, counter-screen for T-cell antigen receptor NF-kB inhibitors, dose response (AID 489041). On the technique in general: Counterscreens check selectivity or assay interference.
For orientation: IC50 means the concentration needed to halve the response being measured. `CCOc1cccc(-c2nnc3n2N=C(c2cc(OC)ccc2OC)CS3)c1`: the 50% inhibitory concentration (IC50) was 4.82 µM.

Regarding `COc1ccc(S(=O)(=O)N2N=C(C)Oc3ccccc3C2=O)cc1`, the IC50 was 29.9 µM (inactive).

Consider `CCCOCCOC(=O)c1[nH]c2c(c1C)C(=O)CC(c1cc(OC)ccc1OC)C2` (configuration not stated), for which the IC50 was 1 µM.

In the case of `Cc1ccc2c(c1)Oc1ccc(NC(=O)CCl)cc1C(=O)N2`, the IC50 is 2.71 µM.

In the case of `CCc1ccc2nc(SCC(=O)Nc3ccccc3N3CCOCC3)c(C#N)cc2c1`, the IC50 was > 80 µM (inactive).

On to `COc1cccc(-c2cc(=O)c3cc(NC(=O)c4ccccc4)ccc3[nH]2)c1`, for which the IC50 was > 80 µM (inactive).

`CCOC(=O)c1ccccc1NC(=O)Cn1c(-c2nonc2N)nc2ccccc21`: the half-maximal inhibitory concentration (IC50) is 0.47 µM.

With `C=C(C)COc1ccc(-c2[nH]ncc2-c2ccc(OC)c(OC)c2)c(O)c1`, the half-inhibitory concentration (IC50) is 5.03 µM.

As to `CC(C)Oc1ccccc1C1CC(=O)Nc2cc3c(cc21)OCCO3` (configuration not stated), the IC50 is 2.69 µM.

As for `Cc1cc(C)nc(SCC(=O)Nc2ccnc3ccccc23)n1`, the IC50 was 9.08 µM.

As to `O=C1CC(c2cc(Br)ccc2F)c2cc3c(cc2N1)CCC3` (configuration not stated), the IC50 was > 80 µM (inactive).

As to `Cc1oc(-c2ccc(Cl)cc2)nc1CS(=O)CC(=O)NCCCN1CCN(Cc2ccccc2)CC1` (configuration not stated), the IC50 is 4.13 µM.

In the case of `COc1ccc(NC(=O)C(=O)NCC2CCCN2S(=O)(=O)c2ccc(C)cc2)cc1` (configuration not stated), the IC50 is 0.69 µM.

As to `CCCC(=O)Nc1nc2ccc(S(=O)(=O)N3CCCCC3)cc2s1`, the IC50 was 3.55 µM.

On to `N=c1ccn(CC(=O)c2ccc(-c3ccccc3)cc2)cc1`, for which the IC50 was 5.16 µM.

On to `Cc1ccc2nc(C)c(CN3CCN(c4ccc([N+](=O)[O-])cc4Cl)CC3)n2c1`, for which the IC50 is 6.8 µM.

With `CCCCCC(=O)N[C@@H](c1ccccc1)[C@@H](O)C(=O)O[C@H]1C[C@@]2(O)[C@@H](OC(=O)c3ccccc3)C3[C@](C)(C(=O)[C@H](OC(C)=O)C(=C1C)C2(C)C)[C@@H](O)C[C@H]1OC[C@@]31OC(C)=O` (some centres not stated), the IC50 was > 80 µM (inactive).

As to `Cc1ccc(-c2nc(-c3ccccn3)no2)cc1`, the IC50 is 3.83 µM.

`CCOc1ccccc1C1CC(=O)Nc2cc3c(cc21)OCCO3` (configuration not stated): the IC50 is 4.19 µM.

In the case of `COc1ccc(/C=C2/C(=O)OCc3cc(OC)c(OC)cc32)cc1`, the half-inhibitory concentration (IC50) is 12 µM.

With `Cc1[nH]n(-c2ccccc2)c(=O)c1/C=N/Nc1nncc(-c2ccccc2)n1`, the IC50 was 0.2 µM.

As to `CC(C)(C)c1csc(Sc2ccc([N+](=O)[O-])cn2)n1`, the IC50 is 36.1 µM (inactive).

On to `COc1cc(C2c3cc4c(cc3CC3COC(=O)C32)OCO4)cc(OC)c1OC` (configuration not stated), for which the IC50 was > 80 µM (inactive).

With `CCc1ccc(/C=N/NC(=O)c2cc(-c3ccncc3)nc3ccccc23)s1`, the IC50 is 7.66 µM.

On to `CCOc1ccc(S(=O)(=O)N2c3ccccc3CC2C)cc1` (configuration not stated), for which the IC50 was 5.98 µM.

As to `CC/C=C/CC(=O)N[C@@H](c1ccccc1)[C@@H](O)C(=O)O[C@H]1C[C@@]2(O)[C@@H](OC(=O)c3ccccc3)C3[C@](C)(C(=O)[C@H](OC(C)=O)C(=C1C)C2(C)C)[C@@H](O)C[C@H]1OC[C@@]31OC(C)=O` (some centres not stated), the IC50 is > 80 µM (inactive).

As to `CCCCC(=O)NC(c1ccc(Cl)cc1)c1ccc2cccnc2c1O` (configuration not stated), the IC50 was > 80 µM (inactive).

As for `Cc1ccc(/C=N/NC(=O)C2COc3ccccc3O2)s1` (configuration not stated), the IC50 is 51.6 µM (inactive).

As for `CCOc1ccc(N(CC(=O)Nc2ccccc2C)S(=O)(=O)c2c(C)noc2C)cc1`, the IC50 is 17 µM.

Turning to `O=C(c1ccccc1-c1ccccc1)N1CCN(c2ccccn2)CC1`, the IC50 is > 80 µM (inactive).

Take `CNC[C@@H](CC1CCCCC1)NC[C@H](CC(C)C)NCCc1cccc(C(F)(F)F)c1`: the IC50 was 12.8 µM.

For the compound `COc1ccc(NC(=O)C(=O)NCC2CCCN2S(=O)(=O)c2cccs2)cc1` (configuration not stated), the IC50 is 21 µM (inactive).

`O=C(Nc1ccc(S(=O)(=O)Nc2ccccc2)cc1)c1ccc(CN2CCOCC2)cc1`: the IC50 was 5.23 µM.

In the case of `COc1ccccc1N=C(C)C1=C(O)CC(c2ccccc2)CC1=O` (configuration not stated), the IC50 is 0.78 µM.

For `Cc1cc(=O)oc2cc(OCC3CC(c4ccccc4Cl)=NO3)ccc12` (configuration not stated), the IC50 is 5.52 µM.

For `Cc1cccc(N=Nc2ccc(O)c3ncccc23)c1`, the IC50 is > 80 µM (inactive).

For `COc1cc(C(=O)N2CCN(c3cccc(C)c3C)CC2)cc(OC)c1OC`, the IC50 is 12.5 µM.

Turning to `O=C(Nc1ccncc1)C1CCCN(S(=O)(=O)c2cccc3cccnc23)C1` (configuration not stated), the IC50 was 35.1 µM (inactive).

With `CC(=O)Nc1ccc(S(=O)(=O)N2c3ccc(F)cc3CCC2C)cc1` (configuration not stated), the IC50 was 14.6 µM.

Regarding `Cc1c(C)c2ccc(OCC(=O)Nc3ccccn3)c(C)c2oc1=O`, the IC50 is 1.78 µM.

For the compound `COc1cc(-c2noc(C)c2-c2ccc(N(C)C)nc2)cc(OC)c1OC`, the IC50 is 1.94 µM.

Take `COc1ccc(C(=O)N(C)Cc2cnn(Cc3ccccc3)c2)cc1S(=O)(=O)N1CCOCC1`: the IC50 is 22.9 µM (inactive).

Regarding `C[C@]12CC[C@H](O)C[C@H]1CC[C@@H]1[C@@H]2CC[C@]2(C)[C@@H](C3=CC(=O)OC3)CC[C@]12O`, the IC50 was less than 0.16 µM.

In the case of `O=C(c1ccc(CS(=O)c2ccccc2Cl)o1)N1CCN(c2ccccn2)CC1` (configuration not stated), the IC50 is 18.8 µM.

In the case of `CCN1/C(=C/c2ccc3cc(C)ccc3[n+]2CC)Sc2ccc3sccc3c21`, the IC50 is 63 µM (inactive).

In the case of `Cc1cc(O)c2c(c1O)C(=O)[C@]13C(=C2O)C(=O)[C@@H]2[C@@H](O)[C@H]1[C@@H]1[C@H](O)[C@H]3C(=O)C3=C(O)c4c(O)cc(C)c(O)c4C(=O)[C@]312`, the IC50 is 11.4 µM.

Take `COc1ccc(NS(=O)(=O)c2ccc(-c3cnc(C4CC4)o3)cc2)cc1OC`: the IC50 is 1 µM.

Regarding `CCN(CC)S(=O)(=O)c1ccc(NC(=O)c2ccc(CN3CCOCC3)cc2)cc1`, the IC50 is 2.54 µM.

Regarding `COC(=O)C1CN(C#N)N(c2ccc(Cl)cc2)C12c1ccccc1-c1ccccc12` (configuration not stated), the IC50 was 15.7 µM.

Take `Cc1c(C(=O)N2CCOCC2)[nH]c2c1C(=O)CC(c1ccccc1Cl)C2` (configuration not stated): the IC50 was 13.8 µM.

Consider `Cc1ccc(NC(=O)CSc2nc(-c3ccco3)cc(C(F)(F)F)n2)cc1C`, for which the IC50 was > 80 µM (inactive).

For the compound `COc1cc(-c2c(-c3cc(OC)c(OC)c(OC)c3)noc2C)ccc1F`, the IC50 was 0.72 µM.

Consider `Cc1ccc2[nH]c(-c3cccc(F)c3)cc(=O)c2c1`, for which the IC50 is > 80 µM (inactive).

Consider `O=S(=O)(Nc1ccc(F)cc1Cl)c1ccc(-c2cnc(C3CC3)o2)cc1`, for which the IC50 was 1.78 µM.

Turning to `COc1ccc(Br)cc1/C(C)=N/NC1=NCCN1`, the IC50 was 9.87 µM.

In the case of `O=C(c1cc(-c2ccncc2)nc2c(Cl)cccc12)N1CCN(c2ccccc2F)CC1`, the IC50 was 12.5 µM.

On to `CCN(CC)c1ccc(NC(=O)c2cc(OC)cc(OC)c2)c(C)c1`, for which the IC50 was 6 µM.

`Cc1nn(C)c(C)c1CN(Cc1nc(CCC(C)C)no1)C(C)C`: the IC50 is 11 µM.

`Cn1cc(/C=N/n2cnc3scc(-c4ccc(Cl)cc4)c3c2=O)c2ccccc21`: the IC50 is 0.22 µM.

With `O=S(=O)(c1ccc2c(c1)OCCO2)N1CCN(c2ncnc3sccc23)CC1`, the 50% inhibitory concentration (IC50) is 2.44 µM.

`CC[C@@]1(O)C(=O)OCc2c1cc1n(c2=O)Cc2cc3c(CN(C)C)c(O)ccc3nc2-1`: the IC50 was 29.3 µM (inactive).

With `COc1cc(C2=NOC(C(=O)NCc3ccc(F)cc3)C2)cc(OC)c1OC` (configuration not stated), the IC50 was 6.34 µM.

Take `Cc1cc(C)cc(NC(=O)c2ccc([N+](=O)[O-])o2)c1`: the IC50 is 31.5 µM (inactive).

As to `C=CCSc1nc2ccccc2n1C(=O)/C=C/c1cc(OC)c(OC)c(OC)c1`, the IC50 is 21.2 µM (inactive).

In the case of `CS(=O)(=O)c1ccc(Sc2nc3ccccc3s2)c([N+](=O)[O-])c1`, the IC50 was 17.1 µM.

For `O=C1C=C(c2ccc3ncccc3c2)C[C@@H](c2ccc3c(c2)OCO3)C1`, the IC50 was 11.1 µM.

On to `C=CCn1c(SCc2c(C)noc2C)nc2ccccc2c1=O`, for which the IC50 was 2.82 µM.

In the case of `O=C(Nc1ccc([N+](=O)[O-])cc1)Nc1ccon1`, the IC50 is > 80 µM (inactive).

For `CC1=C([N+](=O)[O-])C(c2ccccc2)C2=C(N1)c1ccccc1C2=O` (configuration not stated), the IC50 was 8.44 µM.

For the compound `CCCCCCCCCCn1c2c(c(=N)c3c1CCC3)CCC2`, the IC50 was 1.29 µM.

As to `Cc1noc(C)c1COc1ccc(CC(=O)NCc2ccccc2)cc1`, the IC50 was 20.5 µM (inactive).

As to `c1ccc2c(c1)CCN(c1ncnc3c1[nH]c1ccccc13)C2`, the IC50 was 1.43 µM.

Take `Oc1ccc(Nc2nc3ccccc3nc2Nc2ccc(O)cc2)cc1`: the IC50 is 17.6 µM.

In the case of `CC(=O)O[C@H]1C(=O)[C@@]2(C)[C@H]([C@H](OC(=O)c3ccccc3)[C@]3(O)C[C@H](OC(=O)[C@H](O)[C@@H](NC(=O)c4ccccc4)c4ccccc4)C(C)=C1C3(C)C)[C@]1(OC(C)=O)CO[C@@H]1C[C@@H]2O`, the IC50 was > 80 µM (inactive).

In the case of `COC(=O)c1ccc2nc(Nc3nc4c(F)cc(F)cc4s3)sc2c1`, the IC50 was 0.51 µM.

In the case of `COc1ccc(S(=O)(=O)/N=C2\C=C(Nc3ccc(O)cc3)C(=O)c3ccccc32)cc1`, the IC50 is 1.03 µM.

As to `COc1ccc(/C=N/NC(=O)COc2ccccc2-c2ccccc2)cc1`, the IC50 was 4.75 µM.

Turning to `CCC(C)(C)c1ccc(OCCCC[n+]2cccc(C)c2C)c(C(C)(C)CC)c1`, the IC50 was 4.01 µM.

With `COCCn1c(C)cc(C2=NNC(=Nc3ccccc3F)SC2)c1C`, the IC50 is 17.9 µM.

On to `Cc1ccc(C(=O)Nc2ncc(Cc3ccc(SC(F)F)cc3)s2)cc1`, for which the IC50 is > 80 µM (inactive).

On to `Clc1ccc(CSc2nncn2-c2ccc3c(c2)OCCO3)cc1`, for which the IC50 was 13.8 µM.

On to `COc1ccc(OC)c(Nc2cc(-c3ccccc3)nc(N)n2)c1`, for which the IC50 is 3.41 µM.

For the compound `COc1cccc(OC)c1C1=NCC(=O)Nc2c1oc1ccc(Br)cc21`, the IC50 is 3.28 µM.

Take `COc1ccc(/C=C/C(=O)c2cc(F)ccc2OC(=O)c2ccccc2)cc1OC`: the IC50 was less than 0.16 µM.

Consider `O=c1cc(-c2cccc(F)c2)[nH]c2ccccc12`, for which the IC50 was 1.05 µM.

With `COc1ccc([N+](=O)[O-])cc1Nc1c2ccccc2nc2ccccc12`, the IC50 was 1.38 µM.

As to `COc1ccc(C(NC(=O)C(C)C)c2ccc3cccnc3c2O)cc1` (configuration not stated), the IC50 is > 80 µM (inactive).

For the origin of these results see PubChem BioAssay AID489041 (Sanford-Burnham Center for Chemical Genomics, 2010).
